# Results from PubChem BioAssay AID2305 (GlaxoSmithKline (GSK), 2010).
# System: P. falciparum 3D7 growth, pLDH absorbance
# Test: blood-stage malaria parasite growth potency – strain 3D7, dose response (AID 2305)
row,Structure (SMILES),IC50 [nM]
1,Cc1cc(=O)c(-c2ccc(OCc3ccc(OC(F)(F)F)cc3)cc2)c(C)[nH]1,740
2,Nc1c(I)cc(C(=O)Nc2ccc3nc4c(c(N)c3c2)CCCC4)cc1I,140
3,CCOC(=O)/C(=N\OC(C)(C)C(=O)NCc1ccc(O)c(O)c1)c1csc(NC(c2ccccc2)(c2ccccc2)c2ccccc2)n1,170
4,Cc1[nH]c(C)c(-c2ccc(-c3ccc(Cl)cc3)nc2)c(=O)c1Br,110
5,O=[N+]([O-])c1ccc(NC(=NC2CCCc3ccccc32)Nc2ccccc2Br)c(O)c1 (stereo not drawn),920
6,N#CC(c1ccc(Cl)cc1)c1ccc2c(C(F)(F)F)cc(C(F)(F)F)nc2n1 (stereo not drawn),1010
7,COc1ccc(NC(=O)[C@H](Cc2ccccc2)Nc2cc(C)nc(NCCOc3ccccc3)n2)cc1,1070
8,Cn1nccc1C(=O)NCCNCc1cccc(-c2cccc(-c3nc4ccc(F)cc4[nH]3)c2)c1,260
9,O=c1cc(NCCCNCc2cc(Cl)cc(Cl)c2OCc2ccc(Cl)cc2)[nH]c2ccccc12,690
10,O=C(NCCN1CCC(c2ncc(-c3ccccc3)o2)CC1)c1ccc(NC(=O)c2ccc(Cl)cc2)cc1,240
11,Cc1ccc(S(=O)(=O)NC2=NC(C)(C)N(OCc3ccc(Cl)c(Cl)c3)C(N)=N2)cc1,1140
12,O=C(Nc1ccccc1F)NC1CCN(c2ccnc(Nc3ccc(F)cc3)n2)C1 (stereo not drawn),850
13,Cc1c(Cl)ccc2c(C(=O)Nc3ccncc3)cc(-c3cccnc3)nc12,780
14,CCCN(CCC)CCCOc1ccc(C(=O)c2c(-c3ccc(OCCCN(CCC)CCC)cc3)oc3ccc(Cl)cc23)cc1,340
15,N#Cc1ccc(N2CCN(Cc3ccc(-c4ccc(-c5nc6ccc(C(F)(F)F)cc6[nH]5)cc4)cc3)CC2)nc1,960
16,COc1cc2nc(N3CCN(C(=O)c4c(Cl)nsc4-c4ccccc4Cl)CC3)nc(N)c2cc1OC,530
17,CCOc1cc(C=NNc2nc(C)cc(-n3nc(C)cc3C)n2)ccc1O,1080
18,O=C(/C=C/c1ccc(Cl)c(Cl)c1)N1CCC(CN2CCC(Cc3c[nH]c4ccccc34)CC2)CC1,670
19,Cc1ccc(NC(=O)NC2CCN(CCCCCNC(=O)[C@@H]3C[C@H]3c3ccc(Cl)c(Cl)c3)CC2)cc1,540
20,COc1ccccc1NC(=O)Nc1cccc(-c2cccc(-c3nc4ccc(C(F)(F)F)cc4[nH]3)c2)c1,120
21,CS(=O)(=O)c1ccc(CNCc2ccc(-c3cccc(-c4nc5ccc(C(F)(F)F)cc5[nH]4)c3)cc2)cc1,140
22,COc1cccc(C(C)(C)NC[C@@H](O)[C@H](Cc2ccccc2)NC(=O)c2cc(C3CCCC3)cc(N3CCCCS3(=O)=O)c2F)c1,30
23,COc1ccc2ncc(F)c(CCN3C[C@H](CNCc4ccc5c(c4)OCCO5)[C@H](O)C3)c2n1,930
24,O=S(=O)(Nc1cc2c(cc1O)CCN(C1CCC1)CC2)c1ccc(Oc2ccc(F)cc2)cc1,780

row,Structure (SMILES),IC50 [nM]
1,CCCCc1ccc2[nH]cc(C(=O)OCC)c(=O)c2c1,630
2,CCN(c1ccc(F)cc1)S(=O)(=O)c1cc(Br)cc2c1N(C(=O)C1CC1)CC2,940
3,CC(C)[C@H](NC(=O)c1c(F)cccc1F)C(=O)Nc1ccc(Cc2nc3ccccc3s2)cc1,500
4,CC(=O)N1CCC(C(=O)Nc2ccc(-c3cccc(-c4nc5ccc(C(F)(F)F)cc5[nH]4)c3)cc2)CC1,240
5,COc1ccc(CCNCCCCCCNCCc2ccc(Cl)c(Cl)c2)cc1OC,930
6,COc1cc2nccc(Nc3ccc(OCc4ccc(NC(C)=O)cc4)cc3)c2cc1OC,550
7,NCCCNc1nccc(N2CCc3ncnc(Nc4ccc(OCc5cccc(F)c5)c(Cl)c4)c3C2)n1,830
8,COc1ccc(/C=C/C(=O)N2CCc3cc4nccc(N5CCN6CCC[C@H]6C5)c4cc32)cc1,640
9,COc1cc(CNCCCNc2nc3ncccc3[nH]2)c2[nH]cc(Br)c2c1,1160
10,CC(C)(CNC(=O)C1CCN(CCOc2ccc(F)c(F)c2)CC1)c1nc(-c2ccc(Cl)c(O)c2)c(-c2ccncc2)[nH]1,320
11,O=C(Cc1ccc(Cl)cc1)Nc1cc(Cl)ccc1Cn1cnc(N2CCNCC2)cc1=O,1000
12,Cc1ccccc1Oc1nc2ccccc2nc1SCC(=O)NC(C)C,200
13,CC(=O)Nc1ncc(C(=O)Nc2cccc(-c3cccc(-c4nc5ccccc5[nH]4)c3)c2)s1,810
14,C=C[C@H]1CN2CC[C@H]1C[C@H]2[C@H](O)c1ccnc2ccccc12,170
15,c1ccc2[nH]c(-c3ccc(-c4ccc(CN5CCCCC5)cc4)cc3)nc2c1,750
16,CCCC(=O)c1cnc2c(OCCCc3cnc[nH]3)cccc2c1Nc1c(C)cccc1C,340
17,O=C(/C=C/c1ccc(Cl)c(Cl)c1)N1CCC(CN2CCC(Cc3cc4ccccc4[nH]3)CC2)CC1,630
18,Cc1cc(C(=O)N(Cc2ccc(-c3ccc(CNCCc4ccc(S(C)(=O)=O)cc4)cn3)cc2)C(C)CN(C)C)ccc1[N+](=O)[O-] (stereo not drawn),790
19,O=C(c1ccc(-c2ccc(-c3nc4ccc(C(F)(F)F)cc4[nH]3)s2)cc1)N1CCN(CCc2ccccc2)CC1,590
20,COc1cccc2c(NN=Cc3ccccc3[N+](=O)[O-])cc(C)nc12,420
21,COc1ccc(-c2cc(C(F)(F)F)n3ncc(C(=O)Nc4cc(C)ccc4O)c3n2)cc1OC,130
22,Fc1ccc2nc(Nc3nc(-c4ccccn4)cs3)sc2c1,560
23,CN(CCN)Cc1cccc(-c2ccc(-c3nc4ccc(C(F)(F)F)cc4[nH]3)s2)c1,1000
24,c1ccc(CNc2cc(-c3ccccn3)nc(-c3ccccn3)n2)cc1,300
